Data taken from patent US20140357512A1, “HISTONE DEACETYLASE (HDAC) BIOMARKERS IN MULTIPLE MYELOMA” (priority 2013, published 2014).

System: human myeloma cell line MM.1S
Assay: SILAC acetylated-lysine peptide profiling, HDAC inhibitor vs DMSO (light/heavy ratio)
Assay type: cell-based
Excerpt: An embodiment of the invention comprises utilizing the SILAC method in order to quantitate changes in protein expression between two or more populations of cells. The SILAC method is a technique based on mass spectrometry that detects differences in protein abundance among samples using non-radioactive isotopic labeling. The SILAC method is known in the art, and described in detail in Ong et al., “Stable Isotope Labeling by Amino Acids in Cell Culture, SILAC, as a Simple and Accurate Approach to Expression Proteomics”, Molecular & Cellular Proteomics, vol. 1, pp. 376-386 (2002), which is incorporated herein by reference in its entirety.
Briefly, the SILAC method involves growing two populations of cells in cell culture. The first population of cells is grown in growth media containing normal amino acids (“normal media”). The second population of cells is grown in media lacking a standard essential amino acid (such as lysine), but is then supplemented with a non-radioactive, isotopically labeled form of that essential amino acid (such as lysine labeled with ^13C atoms, rather than normal ^12C atoms), which is called “heavy media”. When the two populations of cells are each growing in the medium, they incorporate the amino acids into all of their proteins. The growth of cells maintained in the heavy media is no different from that in normal media. All peptides containing the heavy amino acids are heavier than their normal counterparts. The cells from each of the two populations of cells are lysed. The lysates from each of the two cell populations are then combined. The combined cell lysates are then analyzed by mass spectrometry. Pairs of chemically identical peptides of different stable isotope composition can be differentiated in a mass spectrometer due to their difference in mass. The ratio of peak intensities in the mass spectrum for such peptide pairs reflects the abundance ratio for the two proteins.
This example describes SILAC studies that were performed to compare the effects of three different HDAC inhibitors (Compound A, Compound B, and tubastatin A) to a control on a human multiple myeloma cell line. The HDAC inhibitors were also compared amongst themselves to determine differences in their effects.
A human myeloma cell line MM.1S was grown using either ^12C (light) or ^13C (heavy) lysine containing culture medium. The “heavy” cells were treated with DMSO as the control, and the “light” cells were treated with a single HDAC inhibitor at 37° C. for 6 hours. The heavy and light cells were lysed, and the lysates were mixed in 1:1 ratio and digested with the protease trypsin. The acetylated lysine containing peptides (due to the action of the HDAC inhibitor) in the digested peptide pool were captured by a non-specific anti-acetylated lysine antibody cocktail (the antibodies identify both light and heavy acetylated peptides), and subjected to mass spectrometry analysis in order to identify thousands of individual peptides.
Thousands of peptides were identified in pairs (^12C and ^13C) due to their known mass differences. The amino acid sequence and quantitative ratio (Light/Heavy) of a given peptide in two differentially treated cell lysates were then determined and annotated with their possible protein (gene) sources.
As stated above, three HDAC inhibitors (Compound A, Compound B, and Tubastatin A) were used. Thus, the SILAC method was performed three times, with a different HDAC inhibitor compared to a control each time. Accordingly, there are three pairs of quantitative data in the table below, i.e., Compound A:DMSO, Compound B:DMSO, and Tubastatin A:DMSO. A cut-off of 1.30 fold of change (increase or decrease) was then used to determine “changed” or “+” in the table, and any peptides with a fold of change less than 1.3 fold were determined to be “unchanged” or “0” in the table. Those peptides that were not identified were marked as “NA” in the table. […]

With `O=C(NO)c1cnc(NC2(c3cccc(F)c3)CCCCC2)nc1` [Compound B, 2-((1-(3-fluorophenyl)cyclohexyl)amino)-N-hydroxypyrimidine-5-carboxamide] the “light to heavy ratio (L/H ratio) of acetylated peptide, log 2 scale” value (FLNAENAQK(ac)FK (SEQ ID NO: 200), Ran-specific GTPase-activating protein [150], RANBP1) was 0.00, the “light to heavy ratio (L/H ratio) of acetylated peptide, log 2 scale” value (FNQK(ac)GEVYK (SEQ ID NO: 149), Lipoamide acyltransferase component of branched-chain alpha-keto acid dehydrogenase complex mitochondrial [435], DBT) was 0.00 and the “light to heavy ratio (L/H ratio) of acetylated peptide, log 2 scale” value (FPHSAHQK(ac)YVR (SEQ ID NO: 253), Ribosomal protein L14 variant [71], RPL14) was 0.00. For the same compound, the “L/H ratio of acetylated peptide” value (FQAK(ac)[…] (SEQ ID NO: 415), Microtubule-associated protein RP/EB family member 1 [66], MAPRE1) was −1.00 log 2, the “light to heavy ratio (L/H ratio) of acetylated peptide, log 2 scale” value (FWNK(ac)FLENK (SEQ ID NO: 187), NADH dehydrogenase [ubiquinone] 1 beta subcomplex subunit 6 [49], NDUFB6) was 0.00 and the “light to heavy ratio (L/H ratio) of acetylated peptide AVDLIQK(ac)HK (SEQ ID NO: 546)” value (Flap endonuclease 1 [252], gene FEN1, inhibitor:DMSO) was 0.00 log 2. For the same compound, the “light to heavy ratio (L/H ratio), log 2 scale, acetylated peptide GGVVGIK(ac)VDK (SEQ ID NO: 774)” value (Fructose-bisphosphate aldolase A [108], gene ALDOA, drug:DMSO) was 0.00, the “L/H ratio of acetylated peptide ASGLAAGK(ac)GVIVAK (SEQ ID NO: 37)” value (GART [156], log 2 scale, drug vs DMSO) was 0.00 and the “light to heavy ratio (L/H ratio) of acetylated peptide, log 2 scale” value (GDASK(ac)EDIDTAMK (SEQ ID NO: 161), Isoform 1 of Hydroxyacyl-coenzyme A dehydrogenase mitochondrial [241], HADH) was 0.00. For the same compound, the “light to heavy ratio (L/H ratio) of acetylated peptide, log 2 scale” value (GDGTGGK(ac)SIYGER (SEQ ID NO: 196), Peptidyl-prolyl cis-trans isomerase B [116], PPIB) was 0.00, the “light to heavy ratio (L/H ratio) of acetylated peptide, log 2 scale” value (GFGGK(ac)YGVER (SEQ ID NO: 162), Hematopoietic lineage cell-specific protein [123], HCLS1) was 0.00 and the “light to heavy ratio (L/H ratio) of acetylated peptide, log 2 scale” value (GIVK(ac)DIIHDPGR (SEQ ID NO: 207), 60S ribosomal protein L8 [46], RPL8) was 0.00. The “L/H ratio of acetylated peptide” value (GK(ac)LEEQRPER (SEQ ID NO: 459), Tumor protein translationally-controlled 1 [102], TPT1) was −0.42 log 2, the “L/H ratio of acetylated peptide” value (GK(ac)YMLVR (SEQ ID NO: 377), Carbohydrate sulfotransferase 1 [296], CHST1) was 1.00 log 2 and the “L/H ratio of acetylated peptide” value (GLAPQNK(ac)PELQK (SEQ ID NO: 393), Isoform 2 of Protein FAM107B [225], FAM107B) was 0.69 log 2. For the same compound, the “light to heavy ratio (L/H ratio) of acetylated peptide, log 2 scale” value (GLFIIDDK(ac)GILR (SEQ ID NO: 197), Peroxiredoxin-1 [136], PRDX1) was 0.00, the “L/H ratio of acetylated peptide LVK(ac)VWNLANCK (SEQ ID NO: 39)” value (GNB2L1 [175], log 2 scale, drug vs DMSO) was 0.00 and the “L/H ratio of acetylated peptide IIVDELK(ac)QEVISTSSK (SEQ ID NO: 38)” value (GNB2L1 [271], log 2 scale, drug vs DMSO) was 0.00. For the same compound, the “L/H ratio of acetylated peptide” value (GNTPK(ac)[…] (SEQ ID NO: 449), Nucleolar protein 56 [347], SNORD110, SNORD86, NOP56) was −0.41 log 2, the “L/H ratio of acetylated peptide (ac)AHYNFK(ac)K (SEQ ID NO: 40)” value (GTPBP4 [7], log 2 scale, drug vs DMSO) was 0.00 and the “L/H ratio of acetylated peptide” value (GYGFGLIK(ac)LDLK (SEQ ID NO: 465), Voltage-dependent anion-selective channel protein 1 [28], VDAC1) was −0.57 log 2. The “light to heavy ratio (L/H ratio) of acetylated peptide, log 2 scale” value (GYLTK(ac)EDLR (SEQ ID NO: 216), Protein S100-A10 [28], S100A10) was 0.00, the “light to heavy ratio (L/H ratio) of acetylated peptide (ac)[…](ac)PGECLR (SEQ ID NO: 575)” value (Galectin-1 [13], gene LGALS1, inhibitor:DMSO) was 0.00 log 2 and the “light to heavy ratio (L/H ratio) of acetylated peptide ISGASEK(ac)[…] (SEQ ID NO: 543)” value (Glutamate dehydrogenase 1 mitochondrial [503], gene GLUD1, inhibitor:DMSO) was 0.00 log 2. The “light to heavy ratio (L/H ratio) of acetylated peptide […](ac)YDNSLK (SEQ ID NO: 620)” value (Glyceraldehyde-3-phosphate dehydrogenase [139], gene GAPDH, inhibitor:DMSO) was 0.00 log 2, the “light to heavy ratio (L/H ratio) of acetylated peptide VVK(ac)QASEGPLK (SEQ ID NO: 597)” value (Glyceraldehyde-3-phosphate dehydrogenase [263], gene GAPDH, inhibitor:DMSO) was 0.00 log 2 and the “light to heavy ratio (L/H ratio) of acetylated peptide AHLQK(ac)LMSDK (SEQ ID NO: 549)” value (Glycyl-tRNA synthetase [224], gene GARS, inhibitor:DMSO) was 0.00 log 2. For the same compound, the “light to heavy ratio (L/H ratio), log 2 scale, acetylated peptide LLLLGAGESGK(ac)STIVK (SEQ ID NO: 769)” value (Guanine nucleotide-binding protein G(olf) subunit alpha [55], gene GNAL, drug:DMSO) was 0.00, the “L/H ratio of acetylated peptide AGGK(ac)AGK(ac)DSGK (SEQ ID NO: 15)” value (H2AFV [5:8], log 2 scale, drug vs DMSO) was 0.95 and the “light to heavy ratio (L/H ratio) of acetylated peptide FSPDDK(ac)YSR (SEQ ID NO: 504)” value (H/ACA ribonucleoprotein complex subunit 3 [40], gene NOP10, inhibitor:DMSO) was 0.00 log 2. For the same compound, the “L/H ratio of acetylated peptide GQQQVFK(ac)GLNDK (SEQ ID NO: 41)” value (HADHA [406], log 2 scale, drug vs DMSO) was 0.00 and the “L/H ratio of acetylated peptide EPVAVLK(ac)ANR (SEQ ID NO: 9)” value (HEXB [161], log 2 scale, drug vs DMSO) was −0.40.
